Tests used:
[1] = tested on: Folyl-polyglutamate synthase; test: (§1) Compound was evaluated for the substrate activity for hog liver Folyl-polyglutamate synthase; type: ADME, tissue-based, Sus scrofa; conditions: pig, hog liver folylpolyglutamate synthase; read-out: Km app
MOLT-4 = test: Inhibition of the uptake of [3H]MTX influx into MOLT-4 cells.; type: functional, cell-based, Homo sapiens
Thymidylate synthase = Thymidylate synthase (Homo sapiens, UniProt P04818); test: Inhibition of thymidylate synthase (TS) in human; conditions: read-out: I50
Thymidylate synthase, sequence (P04818 whole entry): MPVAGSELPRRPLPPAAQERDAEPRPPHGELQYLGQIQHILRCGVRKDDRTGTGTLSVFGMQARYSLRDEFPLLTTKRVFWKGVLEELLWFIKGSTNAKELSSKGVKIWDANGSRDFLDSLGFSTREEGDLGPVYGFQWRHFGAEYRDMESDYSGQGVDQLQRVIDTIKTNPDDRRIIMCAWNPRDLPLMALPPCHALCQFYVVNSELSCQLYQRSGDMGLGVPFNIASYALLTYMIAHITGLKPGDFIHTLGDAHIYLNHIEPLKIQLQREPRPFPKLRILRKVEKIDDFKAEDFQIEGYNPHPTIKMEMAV

[2] = Ratio of relative Vmax values to that of apparent Km values.; type: ADME
Dihydrofolate reductase = biological target: T1, Dihydrofolate reductase (Homo sapiens, UniProt P00374); test: Inhibition of dihydrofolate reductase (DHFR) in WIL2 cells; type: cell-based; conditions: read-out: I50
T1 sequence (P00374 whole entry): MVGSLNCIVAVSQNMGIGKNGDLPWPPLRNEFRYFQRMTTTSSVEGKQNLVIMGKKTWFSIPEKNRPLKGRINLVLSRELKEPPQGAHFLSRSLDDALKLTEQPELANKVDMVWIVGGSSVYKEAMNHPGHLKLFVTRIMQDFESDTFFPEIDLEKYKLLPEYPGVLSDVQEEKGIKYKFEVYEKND

MCF7 = test: Effective dose which is required to inhibit 50% of the cell growth of MCF-7 cells in culture.; type: functional; conditions: Homo sapiens, read-out: ED50 (the source's name)
[3] = biological target: Bifunctional purine biosynthesis protein ATIC (Homo sapiens, UniProt P31939); test: Inhibition of 5-aminoimidazole-4-carboxamide AICAR formyltransferase in MOLT-4 cells; type: cell-based; conditions: read-out: I50
Bifunctional purine biosynthesis protein ATIC, sequence (P31939 whole entry): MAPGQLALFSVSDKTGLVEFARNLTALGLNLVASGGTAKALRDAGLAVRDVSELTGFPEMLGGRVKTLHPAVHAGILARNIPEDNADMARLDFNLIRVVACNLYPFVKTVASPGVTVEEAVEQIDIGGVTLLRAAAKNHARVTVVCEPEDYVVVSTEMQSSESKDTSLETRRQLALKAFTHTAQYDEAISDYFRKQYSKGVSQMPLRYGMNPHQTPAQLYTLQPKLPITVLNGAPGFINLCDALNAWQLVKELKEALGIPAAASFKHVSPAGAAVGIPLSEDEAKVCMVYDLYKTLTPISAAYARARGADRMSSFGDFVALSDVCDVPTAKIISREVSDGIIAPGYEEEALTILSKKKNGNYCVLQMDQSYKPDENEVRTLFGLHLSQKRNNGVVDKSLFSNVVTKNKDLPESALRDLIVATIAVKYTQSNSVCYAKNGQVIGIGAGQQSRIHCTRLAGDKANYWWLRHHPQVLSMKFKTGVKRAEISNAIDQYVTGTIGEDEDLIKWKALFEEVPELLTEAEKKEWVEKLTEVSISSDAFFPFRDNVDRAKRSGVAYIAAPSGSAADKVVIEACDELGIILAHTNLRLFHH

Sus scrofa [4] = species on record: Sus scrofa; test: as §1
Sus scrofa [5] = species on record: Sus scrofa; test: Compound was evaluated for the substrate activity for hog liver […] synthetase

Km [1] [µM]	IC50 (Thymidylate synthase) [µM]	Ratio [2]	IC50 (Dihydrofolate reductase) [µM]	EC50 (MCF7) [µM]	IC50 [3] [µM]	Km (Sus scrofa [4]) [µM]	Km (Sus scrofa [5]) [µM]	Structure (SMILES)	Ki (MOLT-4) [µM]
–	28.8	–	1.95	> 100	49.9	> 100	–	Nc1nc(O)c2cc(N(C=O)Cc3ccc(C(=O)NC(CCC(=O)O)C(=O)O)cc3)cnc2n1 (configuration not stated)	–
–	7.1	–	0.21	> 100	62.8	133	–	Nc1nc(O)c2cc(NCc3ccc(C(=O)NC(CCC(=O)O)C(=O)O)cc3)cnc2n1 (configuration not stated)	> 30
–	0.48	0.85	0.25	35	141	55.3	–	CN(Cc1ccc(C(=O)NC(CCC(=O)O)C(=O)O)cc1)c1cnc2nc(N)nc(O)c2c1 (configuration not stated)	–

Continued, molecule first:

Structure (SMILES)	Km [1] [µM]	IC50 (Thymidylate synthase) [µM]	Ratio [2]	IC50 (Dihydrofolate reductase) [µM]	EC50 (MCF7) [µM]	IC50 [3] [µM]	Km (Sus scrofa [4]) [µM]	Km (Sus scrofa [5]) [µM]	Ki (MOLT-4) [µM]
Nc1nc(N)c(CCCNc2ccc(C(=O)N[C@@H](CCC(=O)O)C(=O)O)cc2)c(O)n1	6.7	> 100	14.9	> 100	0.037	–	–	–	1
Nc1nc(O)c2c(n1)NCC(CCc1ccc(C(=O)NC(CCC(=O)O)C(=O)O)cc1)C2 (configuration not stated)	–	> 1000	–	> 100	0.018	–	17.5	–	1.5
Nc1nc(O)c2c(n1)NCC(NCc1ccc(C(=O)NC(CCC(=O)O)C(=O)O)cc1)C2 (configuration not stated)	–	> 100	1	> 1000	1.2	> 100	67.4	–	17.5
CN(Cc1ccc(C(=O)NC(CCC(=O)O)C(=O)O)cc1)C1CNc2nc(N)nc(O)c2C1 (configuration not stated)	–	> 100	7	> 1000	4.5	> 100	–	9.4	22

Source: ChEMBL document CHEMBL1125239, “Synthesis and biological evaluation of 5-deazaisofolic acid, 5-deaza-5,6,7,8-tetrahydroisofolic acid, and their N9-substituted analogues” (J Med Chem, 1991)
